{"source": "patent US20260325473A1", "about": "“N-Beta-Hydroxybutyryl-Amino Acids and Related Compositions and Methods” (The Board of Trustees of the Leland Stanford Junior …, priority 2023, published 2026)", "key": {"[1]": {"assay": "Metabolite quantitation in mouse plasma (QQQ-LC/MS)", "assay_type": "in vivo", "settings": "1 week ketogenic diet, 24 h fast, or ketone ester drink 3 g/kg", "protocol": "(§1) Preparation of plasma samples for LC-MS analysis. Plasma was collected from mice via a submandibular bleed into lithium heparin tubes (BD, 365985) and immediately transferred onto ice. The blood was centrifuged at 4° C. at 5000 rpm for 5 min and the top layer of plasma was aliquoted and frozen at −80 °C. To extract polar metabolites from plasma for LC-MS analysis, 150 μl of a 2:1 mixture of acetonitrile/methanol was added to 50 μl of plasma. The mixture was centrifuged at 4° C. for 10 min at 15,000 rpm and the supernatant was transferred to a LC-MS vial.\n(§2) Targeted metabolomics. Targeted measurements were performed using an Agilent 6470 triple quadrupole LC-MS instrument. MS analysis was performed using AJS in negative mode. The AJS source parameters were set as follows: the dry gas temperature was set at 250° C. with a gas flow of 12 l/min and the nebulizer pressure at 25 psi; the sheath gas temperature was set to 300° C. with the sheath gas flow set at 12 l/min; and the capillary voltage was set to 3,500 V. Separation of polar metabolites was performed as described above in the ‘Untargeted measurements of metabolites by LC-MS’ section. Multiple reaction monitoring was performed for the indicated metabolites with the listed dwell times, fragmentor voltage, collision energies, cell accelerator voltages and polarities. Quantification of the endogenous metabolite concentrations were performed by generating a standard curve with known concentrations of each metabolite. Metabolite standards were analyzed alongside the plasma samples using the same targeted triple quadrupole LC/MS method. A calibration standard curve generated from the metabolite standard concentrations and total peak areas were used to calculate the concentrations of each endogenous metabolite. The dilution of the plasma during the sample preparation was also taken into account for the quantification."}, "CNDP2": {"target": "T1, CNDP2 (Mus musculus, UniProt Q9D1A2)", "T1 sequence (Q9D1A2 1-475)": "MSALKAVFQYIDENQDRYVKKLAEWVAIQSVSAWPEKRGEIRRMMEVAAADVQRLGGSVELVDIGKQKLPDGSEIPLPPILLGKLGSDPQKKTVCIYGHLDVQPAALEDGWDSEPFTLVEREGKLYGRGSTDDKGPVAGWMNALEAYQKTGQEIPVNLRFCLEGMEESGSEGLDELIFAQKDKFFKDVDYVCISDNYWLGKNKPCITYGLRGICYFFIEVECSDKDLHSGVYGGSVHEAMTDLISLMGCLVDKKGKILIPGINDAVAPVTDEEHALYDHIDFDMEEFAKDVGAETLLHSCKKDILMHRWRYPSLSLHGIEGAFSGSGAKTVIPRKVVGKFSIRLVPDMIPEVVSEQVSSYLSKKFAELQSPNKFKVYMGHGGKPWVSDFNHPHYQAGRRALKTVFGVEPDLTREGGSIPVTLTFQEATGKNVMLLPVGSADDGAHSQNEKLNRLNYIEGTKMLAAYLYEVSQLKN", "assay_type": "in vivo", "settings": "ketone ester drink or one week of ketogenic diet", "protocol": "as §1\n(§3) Targeted metabolomics. Targeted measurements were performed using an Agilent 6470 triple quadrupole LC-MS instrument. MS analysis was performed using AJS in negative mode. […] Quantification of the endogenous metabolite concentrations were performed by generating a standard curve with known concentrations of each metabolite. Metabolite standards were analyzed alongside the plasma samples using the same targeted triple quadrupole LC/MS method. […] The dilution of the plasma during the sample preparation was also taken into account for the quantification. […]"}, "[2]": {"assay": "Human ketone ester supplementation study, plasma metabolites", "assay_type": "in vivo", "settings": "0.3 g/kg ketone ester, 60 min", "protocol": "as §2\nHuman ketone ester supplementation study. Following screening, eligible subjects participated in a randomized, counter-balanced, double-blind, placebo-controlled crossover trial comparing BHB supplementation versus placebo, separated by a minimum of 2 days (ClinicalTrials.gov ID NCT04194450). Pre-menopausal women were tested in the follicular phase (days 3-9). Participants were asked to refrain from structured exercise and alcohol, limit physical activity, and follow a standardized diet (~50% carbohydrate, ~30% fat, ~20% protein) on the day before each trial. After refraining from medication use for 24 hours, participants reported to the Exercise, Metabolism and Inflammation Laboratory at the University of British Columbia-Okanagan in an overnight fasted state. Anthropometric measurements were obtained prior to insertion of an indwelling intravenous catheter into the antecubital vein for repeated blood sampling. Blood was collected into EDTA tubes (BD, 367863) and immediately centrifuged at 2000 rpm for 15 min and the top layer of plasma was aliquoted and frozen at −80 °C. After baseline (0) blood sample collection, the oral BHB supplement or placebo was consumed in liquid form (~30-65 mL). The BHB supplement (H.V.M.N®, USA) in the form of the ketone monoester (R)-3-hydroxybutyl (R)-3-hydroxybutyrate (AG®, TDeltaS, Oxford, UK) contained 0.4 g mL-1 BHB, natural flavoring, and <2% stevia leaf extract. The taste-matched placebo drink contained the same natural flavoring as the ketone supplement, stevia leaf extract, 5 mL of Bittrex stock (0.005 g of denatonium benzoate powder in 40 ml of water) and 1.5 mL of arrowroot stock (2 g of arrowroot powder in 50 ml of water) to match the bitter flavor and viscosity of the ketone monoester. Supplements were dispensed into opaque 80 ml bottles with volume calculated for 0.3 g BHB/kg body weight and labelled either A or B by a third-party researcher. Blinding was maintained until completion of data collection and analyses."}, "[3]": {"assay": "Keto-Med study, plasma metabolites", "assay_type": "in vivo", "settings": "human; 4 weeks WFKD vs baseline", "protocol": "as §2\nKeto-Med study. Keto-Med was a single-site, randomized, crossover, interventional trial comparing 2 metabolically distinct diets (well-formulated ketogenic diet, WFKD; and Mediterranean-plus diet, Med-Plus) among individuals with prediabetes and T2DM. Forty participants aged ≥18 years with prediabetes or T2DM followed the WFKD and the Med-Plus for 12 weeks each, in random order. Participants were randomly assigned into 1 of 2 different diet sequences: WFKD for 12 weeks (phase 1) and then the Med-Plus for 12 weeks (phase 2), or the opposite order. Ad libitum intake was advised, and participants were guided to follow 2 sets of dietary guidelines that shared 3 important similarities (incorporating nonstarchy vegetables and avoiding added sugars and refined grains) and 3 important differences (incorporating compared with avoiding legumes, fruits, and whole, intact grains). During the WFKD phase, participants were counseled to sustain nutritional ketosis by limiting carbohydrates to 20-50 g/day and keeping proteins to ~1.5 g/kg ideal body weight/day, with the remaining kcals coming from fats. Participants were also instructed to consume >3 servings/day of nonstarchy vegetables and maintain adequate mineral and fluid intake for the ketogenic state (sodium, 3-5 g/day; potassium, 3-4 g/day). […]"}, "HMGCL [4]": {"tested_on": "HMGCL", "settings": "fasting (24 h) or ketogenic diet (2 days); Goldberg et al.; cited from earlier work"}, "HMGCL [5]": {"tested_on": "HMGCL", "assay": "Plasma metabolites in Alb-Hmgcl (-/-) mice", "assay_type": "in vivo, mouse", "settings": "fasting or ketogenic diet", "protocol": "as §1, §3"}, "[6]": {"tested_on": "mouse tissue lysate proteins (brain, heart, quadriceps, liver)", "assay": "X-Phe photoprobe crosslinking in mouse tissue lysates, in-gel fluorescence", "assay_type": "binding", "settings": "100 μM, UV crosslinking", "protocol": "In vitro crosslinking studies of X-Phe photoprobe. Tissues were collected from wild type C57BL/6J and homogenized using a bead blaster in PBS. The protein homogenate was filtered through a 40 μm strainer to remove any un-homogenized tissue and the lysate diluted to 2 mg/ml. Tissue lysate was incubated with 100 μM of the photoprobe and incubated on ice for 10 minutes protected from light. Reactions were then put under UV for 1 min on a UV Stratalinker. A TAMRA click reaction was performed by adding the following reagents to the indicated final concentrations: […], 1 mM CuSO4, 1 mM TCEP (freshly prepared), 25 μM TAMRA-N3. Reactions were allowed to proceed for 1 hour at room temp, protected from light. Loading buffer was added to the reactions, boiled for 10 minutes and run down a protein gel. The gel was imaged prior to staining with a coomassie dye."}}, "data": [{"smiles": "CC(O)CC(=O)O", "note": "(stereo not drawn) [BHB, beta-hydroxybutyrate, reference compound]", "values": [{"measurement": "plasma BHB levels", "setting": "[1]", "value": "elevated by each of these conditions"}, {"measurement": "plasma BHB in CNDP2-KO vs WT mice", "setting": "CNDP2", "value": "unchanged"}, {"measurement": "plasma BHB after ketone ester drink", "setting": "[2]", "value": "dramatically elevated"}, {"measurement": "elevation of plasma BHB on WFKD", "setting": "[3]", "value": 5, "unit": "fold"}, {"measurement": "circulating BHB levels in Alb-Hmgcl (-/-) mice", "setting": "HMGCL [4]", "value": "reductions in circulating BHB levels"}]}, {"smiles": "C[C@@H](O)CC(=O)N1CCC[C@H]1C(=O)O", "note": "[Keto-Pro]", "values": [{"measurement": "plasma level in Alb-Hmgcl (-/-) mice", "setting": "HMGCL [5]", "value": "reduced in Alb-Hmgcl (−/−) mice"}, {"measurement": "plasma keto amino acids in CNDP2-KO vs wild type mice", "setting": "CNDP2", "value": "unaltered"}]}, {"smiles": "C#CCCC(=O)N[C@@H](Cc1ccc(N=[N+]=[N-])cc1)C(=O)O", "note": "[X-Phe photoprobe]", "values": [{"measurement": "labelling of tissue proteins by photoprobe", "setting": "[6]", "value": "directly interacts with protein targets in a tissue-specific manner"}]}]}
